Test results: US9605024B2, “PAR4 agonist peptides” (Bristol-Myers Squibb Company, priority 2012, dated 2017)

Legend:
[1] = molecular target: protease-activated receptor type 4 (PAR4) (Homo sapiens (Human), UniProt Q96RI0); conditions: abstract of Lee et al., J. Med. Chem. 2001; cited from earlier work
washed platelets = assay: PAR4 agonist peptide induced platelet aggregation assay (washed platelets); type: cell-based, human; conditions: agonist activity
Procedure: Human blood was collected in ACD (85 mM tri-sodium citrate, 78 mM citric acid, 110 mM D-glucose, pH 4.4) at a ratio of 1.4 ml per 10 ml blood. PRP was isolated by centrifugation at 170 g for 14 minutes and platelets were further pelleted by centrifugation at 1300 g for 6 minutes. Platelets were washed once with 10 ml ACD containing 1 mg/ml bovine serum albumin.
The ability of the compounds of the current invention to induce platelet aggregation was tested in a 96-well microplate aggregation assay format. Briefly, a washed platelet suspension with varying concentrations of agonist compounds was assayed. Aggregation was initiated by the addition of a titered test agonist peptide. The plate was then placed into a 37° C. Molecular Devices SPECTRAMAX® Plus Plate Reader (Sunnyvale, Calif.). […] The plate also included an untreated control sample which served as ODmax, while buffer containing no platelets was the ODmin. Platelet aggregation was determined by subtracting the ODmax from the ODmin for the 100% aggregation value. In experimental samples, the observed transmission was subtracted from the minimum value and then compared to the 100% aggregation value to determine the percentage aggregation. ED50 values were determined using Excel Fit software.

PAR4 [2] = molecular target: T1, PAR4 (Homo sapiens (Human), UniProt Q96RI0); assay: FLIPR assay in PAR4-expressing HEK293 cells, test for antagonist activity; type: cell-based; conditions: H-Ala-Phe(4-F)-Pro-Gly-Trp-Leu-Val-Lys-Asn-Gly-NH2-induced calcium mobilization
Description: The FLIPR assay is an exemplary in vitro assay for measuring the activity of the PAR4 antagonists of the present invention. In this assay, intracellular calcium mobilization is induced in PAR4 expressing cells by a PAR4 agonist and calcium mobilization is monitored. See, e.g., Example A. The FLIPR assay is also an exemplary in vitro assay for measuring the agonist activity of PAR4 agonist peptides. See Example H.
HEK293 cells stably expressing PAR4 were generated by a standard method of transfection of human […] cDNA expression vector or by RAGE technology from Athersys Inc. (Cleveland, Ohio) and selected based on PAR4 protein expression of mRNA expression. […] These cells express endogenous PAR1 and can elicit calcium signal upon stimulation with PAR1 agonist peptide.
Counter screens for agonist activity and PAR1 antagonist activity were also performed. Briefly, HEK293 EBNA PAR4 clone 20664.1J cells were plated 24 hrs. prior to experiment in 384 well, Poly-D-Lysine coated, black, clear bottom plates (Greiner Bio-One, Monroe, N.C.). Cells were plated at 20,000 cells/well in 20 μl growth medium and incubated at 37° C. with 5% CO2 overnight. At time of assay, media was replaced with 40 μl 1× Hank's Buffered Saline Solution (HBSS) (with 10 mM HEPES) and 20 μl test compound also diluted in 1×HBSS buffer was added at various concentrations and 0.67% DMSO final concentration on the FDSS for agonist measurement. The cells were then incubated for 30 minutes at room temperature followed by addition of 20 μl of agonist peptide for antagonist measurement on the FDSS.

PAR4 [3] = molecular target: T1, PAR4; assay: Gamma thrombin induced platelet aggregation assay (PRP assay); type: cell-based; conditions: platelet rich plasma
Procedure: The platelet rich plasma was isolated by centrifugation at 170 g for 14 minutes.
The ability of the compounds of the current invention to inhibit platelet aggregation induced by gamma-thrombin was tested in a 96-well microplate aggregation assay format. Briefly, PRP or washed platelet suspension (100 μl) was pre-incubated for 5 minutes at room temperature with varying concentrations of compounds. Aggregation was initiated by ˜10-50 nM gamma thrombin (Haematologic Technologies, Essex Junction, Vt.), which was titrated daily to achieve 80% platelet aggregation. Refludan at 1 U/mL (Berlex, Montville, N.J.) was added to the gamma thrombin sample to prevent PAR1 activation induced by residual alpha-thrombin contamination. The plate was then placed into a 37° C. Molecular Devices (Sunnyvale, Calif.) SPECTRAMAX® Plus Plate Reader. […] The plate also included an untreated control sample which served as ODmax, while buffer containing no platelets was the ODmin. Platelet aggregation was determined by subtracting the ODmax from the ODmin for the 100% aggregation value. In experimental samples, the observed transmission was subtracted from the minimum value and then compared to the 100% aggregation value to determine the percentage aggregation. IC50 values are determined using Excel Fit software.

[4] = TRACER phase III trial, ACS patients; cited from earlier work

T1 sequence (Q96RI0 18-385): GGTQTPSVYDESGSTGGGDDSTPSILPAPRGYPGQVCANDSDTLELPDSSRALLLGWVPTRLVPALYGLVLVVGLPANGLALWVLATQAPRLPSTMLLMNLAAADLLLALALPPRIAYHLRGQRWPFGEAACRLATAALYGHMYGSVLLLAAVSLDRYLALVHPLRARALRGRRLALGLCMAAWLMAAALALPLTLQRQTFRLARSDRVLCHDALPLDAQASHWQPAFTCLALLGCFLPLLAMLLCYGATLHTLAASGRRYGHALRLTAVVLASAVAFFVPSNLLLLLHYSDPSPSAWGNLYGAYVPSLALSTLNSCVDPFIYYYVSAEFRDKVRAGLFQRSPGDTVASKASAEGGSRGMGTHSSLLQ
Sequence of protease-activated receptor type 4 (PAR4) (Q96RI0 18-385): as above

| SMILES | ED50 (μM) [Platelet Aggregation] (washed platelets) [µM] | further results |
| --- | --- | --- |
| CCOC(=O)c1ccc(-c2nn(Cc3ccccc3)c3ccccc23)cc1 [Compound 58] | – | inhibition of PAR4-dependent platelet activation [1]: selective and potent inhibitor |
| COc1cc(OCc2csc(C)n2)c2cc(-c3cn4nc(OC)sc4n3)oc2c1 [Example 1, 2-Methoxy-6-(6-methoxy-4-((2-methylthiazol-4-yl)methoxy)benzofuran-2-yl)imidazo[2,1-b][1,3,4]thiadiazole] | 13 | – |
| COc1cc(OCc2csc(C(F)(F)F)n2)c2cc(-c3cn4nc(OC)sc4n3)oc2c1 [Example 2, 2-Methoxy-6-(6-methoxy-4-((2-(trifluoromethyl)thiazol-4-yl)methoxy)benzofuran-2-yl)imidazo[2,1-b][1,3,4]thiadiazole] | – | EC50 (PAR4 [2]): 0.42 nM; IC50 (PAR4 [3]): 49 nM |
| COc1cc(OCc2csc(-c3ccccc3)n2)c2cc(-c3cn4nc(OC)sc4n3)oc2c1 [Example 3, 2-Methoxy-6-(6-methoxy-4-((2-phenylthiazol-4-yl)methoxy)benzofuran-2-yl)imidazo[2,1-b][1,3,4]thiadiazole] | 0.86 | – |
| COCCOCc1nc(COc2cc(OC)cc3oc(-c4cn5nc(OC)sc5n4)cc23)cs1 [Example 6, 2-Methoxy-6-(6-methoxy-4-((2-((2-methoxyethoxy)methyl)thiazol-4-yl)methoxy)benzofuran-2-yl)imidazo[2,1-b][1,3,4]thiadiazole] | 1.1 | – |
| COc1cc(OCc2cn(-c3ccccc3)nn2)c2cc(-c3cn4nc(OC)sc4n3)oc2c1 [Example 9, 2-Methoxy-6-(6-methoxy-4-((1-phenyl-1H-1,2,3-triazol-4-yl)methoxy)benzofuran-2-yl)imidazo[2,1-b][1,3,4]thiadiazole] | – | EC50 (PAR4 [2]): 5.3 nM; IC50 (PAR4 [3]): > 3000 nM |
| COc1cc(OCc2cnnn2-c2ccccc2)c2cc(-c3cn4nc(OC)sc4n3)oc2c1 [Example 10, 2-Methoxy-6-(6-methoxy-4-((1-phenyl-1H-1,2,3-triazol-5-yl)methoxy)benzofuran-2-yl)imidazo[2,1-b][1,3,4]thiadiazole] | – | EC50 (PAR4 [2]): 3.5 nM; IC50 (PAR4 [3]): 2700 nM |
| COc1cc(OCc2csc(-c3cccc(C)c3)n2)c2cc(-c3cn4nc(OC)sc4n3)oc2c1 [Example 12] | 0.97 | – |
| COc1cc(OCc2nc(-c3ccccc3)sc2C)c2cc(-c3cn4nc(OC)sc4n3)oc2c1 [Example 13] | 0.67 | – |
| COc1cc(OCc2csc(C3CCOCC3)n2)c2cc(-c3cn4nc(OC)sc4n3)oc2c1 [Example 14] | 12.3 | – |
| COc1cc(OCc2csc(-c3ccc(F)cc3)n2)c2cc(-c3cn4nc(OC)sc4n3)oc2c1 [Example 15] | 0.63 | – |
| COc1cc(OCc2csc(-c3ccccc3Cl)n2)c2cc(-c3cn4nc(OC)sc4n3)oc2c1 [Example 16] | 37 | – |
| COc1cc(OCc2csc(-c3cccc(C(F)(F)F)c3)n2)c2cc(-c3cn4nc(OC)sc4n3)oc2c1 [Example 17] | 106 | – |
| COc1ccc(-c2nc(COc3cc(OC)cc4oc(-c5cn6nc(OC)sc6n5)cc34)cs2)cc1 [Example 18] | 5.5 | EC50 (PAR4 [2]): 2.5 nM; IC50 (PAR4 [3]): 3.6 nM |
| COc1cc(OCc2csc(-c3ccccc3OC)n2)c2cc(-c3cn4nc(OC)sc4n3)oc2c1 [Example 19] | 1.6 | – |
| COc1cc(OCc2csc(C3CCCCC3)n2)c2cc(-c3cn4nc(OC)sc4n3)oc2c1 [Example 20] | 4.1 | – |

| SMILES | ED50 (μM) [Platelet Aggregation] (washed platelets) [µM] | further results |
| --- | --- | --- |
| COc1cc(OCc2csc(N3CCCCC3)n2)c2cc(-c3cn4nc(OC)sc4n3)oc2c1 [Example 21] | 2.4 | – |
| COc1cc(OCc2csc(N3CCN(C)CC3)n2)c2cc(-c3cn4nc(OC)sc4n3)oc2c1 [Example 22] | 1.2 | – |
| CCc1nc(COc2cc(OC)cc3oc(-c4cn5nc(OC)sc5n4)cc23)cs1 [Example 23] | 0.79 | – |
| COc1cc(OCc2csc(-c3ccc(F)cc3F)n2)c2cc(-c3cn4nc(OC)sc4n3)oc2c1 [Example 24] | 0.69 | – |
| COc1cc(OCc2csc(-c3cccc(F)c3)n2)c2cc(-c3cn4nc(OC)sc4n3)oc2c1 [Example 25] | 52 | – |
| COc1cc(OCc2csc(-c3ccccc3F)n2)c2cc(-c3cn4nc(OC)sc4n3)oc2c1 [Example 26] | 1.0 | – |
| COc1cc(OCc2csc(-c3ccc(Cl)cc3)n2)c2cc(-c3cn4nc(OC)sc4n3)oc2c1 [Example 27] | 1.7 | – |
| COc1cc(OCc2csc(-c3ccncc3)n2)c2cc(-c3cn4nc(OC)sc4n3)oc2c1 [Example 28] | 0.76 | – |
| COc1cc(OCc2csc(-c3ccc(OC(F)(F)F)cc3)n2)c2cc(-c3cn4nc(OC)sc4n3)oc2c1 [Example 29] | 1.0 | – |
| COc1cc(OCc2csc(-c3cccnc3)n2)c2cc(-c3cn4nc(OC)sc4n3)oc2c1 [Example 30] | 1.7 | – |
| COc1cc(OCc2csc(N3CCC(F)(F)CC3)n2)c2cc(-c3cn4nc(OC)sc4n3)oc2c1 [Example 31] | 0.63 | – |
| COc1cc(OCc2csc(-c3cnccn3)n2)c2cc(-c3cn4nc(OC)sc4n3)oc2c1 [Example 32] | 0.61 | – |
| COc1cc(OCc2csc(-c3cc(C)on3)n2)c2cc(-c3cn4nc(OC)sc4n3)oc2c1 [Example 33] | 1.2 | EC50 (PAR4 [2]): 1.7 nM; IC50 (PAR4 [3]): 38 nM |
| COc1cc(OCc2cscn2)c2cc(-c3cn4nc(OC)sc4n3)oc2c1 [Example 34] | 3.0 | – |
| COc1nn2cc(-c3cc4c(OCc5csc(-c6ccccc6)n5)cc(F)cc4o3)nc2s1 [Example 36, 6-(6-Fluoro-4-((2-phenylthiazol-4-yl)methoxy)benzofuran-2-yl)-2-methoxyimidazo[2,1-b][1,3,4]thiadiazole] | – | EC50 (PAR4 [2]): 1 nM; IC50 (PAR4 [3]): 48 nM |
| CCOC(=O)N[C@@H]1CC[C@@H]2[C@@H](C1)C[C@H]1C(=O)O[C@H](C)[C@H]1[C@H]2/C=C/c1ccc(-c2cccc(F)c2)cn1 [vorapaxar] | – | cardiovascular events [4]: did not significantly reduce cardiovascular events; risk of major bleeding [4]: significantly increased the risk of major bleeding |
